The subject of one test is Hek293 empty vector. The test can be described thus: In vitro cell viability (CellTiter-Glo), Hek293 empty vector. The test is classed as cell-based. On the procedure:
HEK293 (ATCC, catalog #CRL-1573) cells are plated in 10 cm dishes (Corning, product #430167) into 10 mL of complete DMEM cell culture media [DMEM (Life Technologies, product #11960-051) media supplemented with 10% FBS (Hyclone, catalog #SH30071.03), antimycotic/antibiotic (Life Technologies, product #15240-062), and Glutamax (Life Technologies, product #35050-061)] at 3×10^6 cells per dish. Cells are allowed to attach and grow overnight at 37° C. in humidified 5% CO2. Cells are co-transfected with pVSV-G, pCMV-Gag/Pol and pCLPCX_WFS1 using Fugene 6 (Promega, catalog #E2691) according to manufacturer's protocol. Separately, cells are co-transfected with pVSV-G, pCMV-Gag/Pol and pCLPCX to produce control retrovirus. Cell culture media containing retrovirus (viral supernatant) is collected at 48 and 72 hours following transfection, filtered through a 0.4 uM filter, and stored at −80° C.
HEK293 cells are plated in 6 well plates (Corning, product #3516) in 2 mL of complete DMEM cell culture media at 1×10^5 cells well and allowed to attach and grow overnight at 37° C. in humidified 5% CO2. The following day, the media is replaced with viral supernatant to which 10 ug/ml of Polybrene® (Santa Cruz Biotech, catalog #sc-134220) is added. Viral supernatant is replaced 24 hours later with complete DMEM media. Transduced cells are selected in complete DMEM cell culture media containing 1 microgram/mL of puromycin (Life Technologies, catalog #A1113803).
(§1) HEK293 cells containing empty pCLPCx vector (HEK293 empty), HEK293 cells stably over-expression WFS1 (HEK293 WFS1), HepG2, and HepG2 cells where WFS1 was depleted via CRISPR/Cas9 (HepG2 WFS1 KO) cells were plated into 96-well black plates (Corning, product #3904) in 100 microliters of complete DMEM cell culture media [DMEM (Life Technologies, product #11960-051) media supplemented with 10% FBS (Hyclone, catalog #SH30071.03), antimycotic/antibiotic (Life Technologies, product #15240-062), and Glutamax (Life Technologies, product #35050-061)] at 1,000 (HEK293) or 5,000 (HepG2) cells per well. Cells were allowed to attach and grow overnight, after which compounds are added at various concentrations. Cell viability was assessed 96 hrs after compound addition with CellTiter-Glo reagent (Promega, catalog #G7570) according to manufacturer's protocol and measurement on a Pherastar luminescence plate reader (BMG Labtech).
The IC50s for the viability of both the Hek293 empty vector and WFS1 over-expressing cells are summarized in Table 47: A<0.06 μM; 0.06 μM≤B<0.6 μM; 0.6 μM≤C<3.0 μM; D≥3.0 μM.

Test [1] concerns the target HEK293 membranes over-expressing WFS-1 (Homo sapiens (Human), UniProt O76024). The test is described as follows: Radioligand displacement assay (tritiated Compound 136 probe). To be noted: displacement of tritiated Compound 136. The test is classed as binding. In a few lines:
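WFS-1-overexpressing HEK293 membranes were preincubated 10 min with compound, then tritiated probe was added for 90 min at room temperature. Bound probe was collected by filtration on PEI-pretreated GF/B filters, washed and scintillation-counted. IC50 came from a 3-parameter fit of bound probe vs compound concentration.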
(In general: In a radioligand displacement assay an active substance lowers the binding of a labelled ligand.)

Another test concerns HepG2 parental. The test can be described thus: In vitro cell viability (CellTiter-Glo), HepG2 parental. To be noted: 96 hours. The test is classed as cell-based. The method, then:
as §1
To determine the effect of WFS1 depletion on compound mediated inhibition of cell viability, parental HepG2 cells and HepG2 cells where WFS1 was deleted by CRISPR/Cas9 were exposed to increasing concentrations of either Compound 136 or Compound 253 for 96 hours after which time viability was determined using Cell Titer Glo reagent (Promega). […] The IC50s for the viability of both the HepG2 parental and WFS1 knockout cells are summarized in Table 47: A<0.5 μM; 0.5 μM≤<2.0 μM; 2.0 μM≤C<10.0 μM; D≥[…].
On the technique in general: In ATP-based viability assays light output follows the ATP content of the culture.

The mark [2] stands for this setting: Homo sapiens, HEK293, read-out: Hek293 empty vector viability.
Setting [3] is: Homo sapiens, read-out: HepG2 viability.

This is an account of results in US20230312587A1, “PTERIDINONE COMPOUNDS AND USES THEREOF” (Vertex Pharmaceutical Incorporated, priority 2018, published 2023).

Structures are written as SMILES. Like-named read-outs stand apart in the source and are kept apart here.

Chain of HEK293 membranes over-expressing WFS-1 (O76024 whole entry): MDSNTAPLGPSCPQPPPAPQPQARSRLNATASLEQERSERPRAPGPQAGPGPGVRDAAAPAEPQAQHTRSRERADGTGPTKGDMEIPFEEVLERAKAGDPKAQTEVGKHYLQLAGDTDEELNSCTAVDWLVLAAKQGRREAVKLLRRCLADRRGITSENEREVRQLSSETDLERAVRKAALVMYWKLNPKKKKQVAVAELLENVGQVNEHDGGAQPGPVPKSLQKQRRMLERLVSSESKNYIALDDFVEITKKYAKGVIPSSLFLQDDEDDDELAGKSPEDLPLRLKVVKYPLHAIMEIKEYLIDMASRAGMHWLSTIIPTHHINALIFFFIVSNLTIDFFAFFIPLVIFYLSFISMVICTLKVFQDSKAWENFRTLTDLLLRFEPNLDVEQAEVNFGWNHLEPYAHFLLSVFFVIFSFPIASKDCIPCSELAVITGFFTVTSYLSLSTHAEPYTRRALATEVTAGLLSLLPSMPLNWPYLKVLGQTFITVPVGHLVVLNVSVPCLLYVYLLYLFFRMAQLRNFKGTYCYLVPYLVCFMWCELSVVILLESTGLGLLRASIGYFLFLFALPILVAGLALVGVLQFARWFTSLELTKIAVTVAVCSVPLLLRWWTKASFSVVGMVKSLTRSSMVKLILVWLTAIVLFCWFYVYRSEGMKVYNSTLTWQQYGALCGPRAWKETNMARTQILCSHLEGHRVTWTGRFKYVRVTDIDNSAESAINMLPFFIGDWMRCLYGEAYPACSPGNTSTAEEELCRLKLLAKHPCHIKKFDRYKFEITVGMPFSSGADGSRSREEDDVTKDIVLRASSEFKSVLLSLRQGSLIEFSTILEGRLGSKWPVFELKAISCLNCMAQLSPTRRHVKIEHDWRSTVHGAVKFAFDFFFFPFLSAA

For `Cc1nc(NCc2cnn(CCc3ccc(F)cc3)c2)nc2c1NC(=O)[C@H](C)N2C` [Compound 6, (7S)-2-(((1-(4-fluorophenethyl)-1H-pyrazol-4-yl)methyl)amino)-4,7,8-trimethyl-7,8-dihydropteridin-6(5H)-one], the IC50 with Hek293 empty vector (setting [2]) is no less than 3000 nM; in test [1], 60 to 600 nM; with HepG2 parental (setting [3]), 2000 to 10000 nM.

Turning to `Cc1nc(NCc2cnn(CC3CCC3)c2)nc2c1N(C)C(=O)[C@H](C)N2C` [Compound 7, (7S)-2-(((1-(cyclobutylmethyl)-1H-pyrazol-4-yl)methyl)amino)-4,5,7,8-tetramethyl-7,8-dihydropteridin-6(5H)-one], the IC50 is no less than 3000 nM with Hek293 empty vector (setting [2]), 60 to 600 nM in test [1] and 2000 to 10000 nM in the test with HepG2 parental (setting [3]).

Turning to `Cc1nc(NCc2cnn(CCc3ccc(F)cc3)c2)nc2c1N(C)C(=O)[C@H](C)N2C` [Compound 8, (7S)-2-(((1-(4-fluorophenethyl)-1H-pyrazol-4-yl)methyl)amino)-4,5,7,8-tetramethyl-7,8-dihydropteridin-6(5H)-one], the IC50 in the test on Hek293 empty vector (setting [2]) was no less than 3000 nM; in test [1], 600 to 3000 nM; in the test on HepG2 parental (setting [3]), 2000 to 10000 nM.

On to `CC[C@H]1C(=O)Nc2cnc(NCc3cnn(Cc4ccc(F)cc4)c3)nc2N1C` [Compound 9, (7S)-7-ethyl-2-(((1-(4-fluorobenzyl)-1H-pyrazol-4-yl)methyl)amino)-8-methyl-7,8-dihydropteridin-6(5H)-one], for which the IC50 in the test with Hek293 empty vector (setting [2]) is no less than 3000 nM; in test [1] it was 60 to 600 nM; in the test with HepG2 parental (setting [3]) it was no less than 10000 nM.

For the compound `Cc1nc(NCc2cnn(C[C@H](C)c3ccc(F)cc3)c2)nc2c1NC(=O)[C@H](C)N2C` [Compound 96, (7S)-2-(((1-((R)-2-(4-fluorophenyl)propyl)-1H-pyrazol-4-yl)methyl)amino)-4,7,8-trimethyl-7,8-dihydropteridin-6(5H)-one], the IC50 is no less than 3000 nM in the test with Hek293 empty vector (setting [2]), less than 60 nM in test [1] and 2000 to 10000 nM with HepG2 parental (setting [3]).

Turning to `Cc1nc(NCc2cnn(CCC3CCOCC3)c2)nc2c1NC(=O)[C@H](C)N2C` [Compound 115, (7S)-4,7,8-trimethyl-2-(((1-(2-(tetrahydro-2H-pyran-4-yl)ethyl)-1H-pyrazol-4-yl)methyl)amino)-7,8-dihydropteridin-6(5H)-one], the IC50 with Hek293 empty vector (setting [2]) was no less than 3000 nM; in test [1], 600 to 3000 nM; in the test on HepG2 parental (setting [3]) it was no less than 10000 nM.

With `CCOc1ccc(CCn2cc(CNc3ncc4c(n3)N(C)[C@@H](C)C(=O)N4)cn2)cc1` [Compound 121, (7S)-2-(((1-(4-ethoxyphenethyl)-1H-pyrazol-4-yl)methyl)amino)-7,8-dimethyl-7,8-dihydropteridin-6(5H)-one], the IC50 with Hek293 empty vector (setting [2]) was no less than 3000 nM; in test [1], 60 to 600 nM; with HepG2 parental (setting [3]) it was no less than 10000 nM.

Regarding `Cc1nc(NCc2cnn(C3CCN(C(=O)c4ccc(F)cc4)CC3)c2)nc2c1NC(=O)[C@H](C)N2C` [Compound 125, (7S)-2-(((1-(1-(4-Fluorobenzoyl)piperidin-4-yl)-1H-pyrazol-4-yl)methyl)amino)-4,7,8-trimethyl-7,8-dihydropteridin-6(5H)-one], the IC50 is no less than 3000 nM with Hek293 empty vector (setting [2]), 60 to 600 nM in test [1] and 2000 to 10000 nM in the test on HepG2 parental (setting [3]).

Regarding `Cc1nc(NCc2cnn(CC(C)(O)c3ccc(F)cc3)c2)nc2c1NC(=O)[C@H](C)N2C` (stereo partly drawn) [Compound 128, (7S)-2-(((1-(2-(4-fluorophenyl)-2-hydroxypropyl)-1H-pyrazol-4-yl)methyl)amino)-4,7,8-trimethyl-7,8-dihydropteridin-6(5H)-one], the IC50 with Hek293 empty vector (setting [2]) is no less than 3000 nM; in test [1], no less than 3000 nM; in the test with HepG2 parental (setting [3]), 2000 to 10000 nM.

Take `Cc1nc(NCc2cnn(Cc3ccc(C(F)(F)F)nc3)c2)nc2c1NC(=O)[C@H](C)N2C` [Compound 136, (7S)-4,7,8-trimethyl-2-(((1-((6-(trifluoromethyl)pyridin-3-yl)methyl)-111-pyrazol-4-yl)methyl)amino)-7,8-dihydropteridin-6(5H)-one]: the IC50 in the test with Hek293 empty vector (Hek293 empty vector, read-out: Hek293 empty vector viability) is no less than 3000 nM; in the test on Hek293 empty vector (cell viability, Hek293 empty vector, read-out: IC50), greater than 27000 nM; in the test with Hek293 empty vector (cell viability, Hek293 empty vector, read-out: IC50 class), no less than 3000 nM; in test [1] it was 60 to 600 nM; in the test on HepG2 parental (read-out: HepG2 viability), 500 to 2000 nM; in the test on HepG2 parental (cell viability, Cell Titer Glo, read-out: IC50), 330 nM. Further, the IC50 in the test on HepG2 parental (cell viability, read-out: IC50 class) was less than 500 nM.

Take `Cc1nn(C)cc1Cn1cc(CNc2nc(C)c3c(n2)N(C)[C@@H](C)C(=O)N3)cn1` [Compound 139, (7S)-2-(((1-((1,3-dimethyl-1H-pyrazol-4-yl)methyl)-1H-pyrazol-4-yl)methyl)amino)-4,7,8-trimethyl-7,8-dihydropteridin-6(5H)-one]: the IC50 in the test on Hek293 empty vector (setting [2]) was no less than 3000 nM; in test [1], 600 to 3000 nM; in the test on HepG2 parental (setting [3]), no less than 10000 nM.

On to `Cc1nc(NCc2cnn(Cc3ccc(C(F)(F)F)cc3)c2)nc2c1NC(=O)[C@H](C)N2C` [Compound 149, (7S)-4,7,8-trimethyl-2-(((1-(4-(trifluoromethyl)benzyl)-1H-pyrazol-4-yl)methyl)amino)-7,8-dihydropteridin-6(5H)-one], for which the IC50 was no less than 3000 nM in the test with Hek293 empty vector (setting [2]), 60 to 600 nM in test [1] and less than 500 nM in the test on HepG2 parental (setting [3]).

For the compound `Cc1ncc(Cn2cc(CNc3nc(C)c4c(n3)N(C)[C@@H](C)C(=O)N4)cn2)cn1` [Compound 163, (7S)-4,7,8-trimethyl-2-(((1-((2-methylpyrimidin-5-yl)methyl)-1H-pyrazol-4-yl)methyl)amino)-7,8-dihydropteridin-6(5H)-one], the IC50 was no less than 3000 nM with Hek293 empty vector (setting [2]), no less than 3000 nM in test [1] and no less than 10000 nM in the test on HepG2 parental (setting [3]).

For the compound `Cc1cnc(C(F)(F)F)nc1-n1cc(CNc2ncc3c(n2)N(C)[C@@H](C)C(=O)N3)cn1` [Compound 164, (7S)-7,8-dimethyl-2-(((1-(5-methyl-2-(trifluoromethyl)pyrimidin-4-yl)-1H-pyrazol-4-yl)methyl)amino)-7,8-dihydropteridin-6(5H)-one], the IC50 with Hek293 empty vector (setting [2]) is no less than 3000 nM; in test [1], 60 to 600 nM; with HepG2 parental (setting [3]), no less than 10000 nM.

`Cc1nc(NCc2cnn([C@@H]3CCN(c4ccc(F)cc4)C3)c2)nc2c1NC(=O)[C@H](C)N2C` [Compound 170, (7S)-2-(((1-((R)-1-(4-fluorophenyl)pyrrolidin-3-yl)-1H-pyrazol-4-yl)methyl)amino)-4,7,8-trimethyl-7,8-dihydropteridin-6(5H)-one]: the IC50 in the test with Hek293 empty vector (setting [2]) is no less than 3000 nM; in test [1], 60 to 600 nM; in the test on HepG2 parental (setting [3]), less than 500 nM.

Regarding `Cc1nc(NCc2cnn(Cc3ccc(F)cc3)c2)nc2c1NC(=O)C1(CC1)N2` [Compound 222, 2′-(((1-(4-fluorobenzyl)-1H-pyrazol-4-yl)methyl)amino)-4′-methyl-5′,8′-dihydro-6′H-spiro[cyclopropane-1,7′-pteridin]-6′-one], the IC50 in the test on Hek293 empty vector (setting [2]) is no less than 3000 nM; in test [1] it was 600 to 3000 nM; with HepG2 parental (setting [3]) it was no less than 10000 nM.

In the case of `CN1C(=O)C(C)(C)N(C)c2nc(NCc3cnn(Cc4cccnc4C(F)(F)F)c3)ncc21` [Compound 237, 5,7,7,8-Tetramethyl-2-(((1-((2-(trifluoromethyl)pyridin-3-yl)methyl)-1H-pyrazol-4-yl)methyl)amino)-7,8-dihydropteridin-6(5H)-one], the IC50 in the test with Hek293 empty vector (setting [2]) was no less than 3000 nM; in test [1], 60 to 600 nM; in the test on HepG2 parental (setting [3]), no less than 10000 nM.
